According to patent US20240067631A1, “PYRAZOLE DERIVATIVES USEFUL AS NAMPT MODULATORS” (Cytokinetics, Inc., priority 2020, published 2024):

Target: human NAMPT (Homo sapiens (Human), UniProt P43490)
Experiment: Human recombinant enzyme assay (NMN fluorescence biochemical assay)
Conditions: 6 nM human NAMPT, 60 min; for AC1.4 Human: concentration of compound that generates 40% higher activity over basal; for EC50: concentration that gives half-maximal activation
Procedure: Compounds described herein were assayed for their ability to stimulate the synthesis of nicotinamide mononucleotide (NMN) by the enzyme NAMPT. The human recombinant enzyme assay measures the activation of the enzyme activity by compounds using recombinant enzyme and substrates in a buffered cell-free system. The assay conditions closely mimic cellular environments. Dose responses were measured using an assay to detect the formation of nicotinamide mono-nucleotide. All experiments were performed in the 384-well format. Generally, 0.5 μL of DMSO containing varying concentrations of the test compound was mixed with 10 μL of the enzyme reagent solution. Enzyme reactions were initiated with the addition of 10 μL of a solution containing the substrates. The final assay conditions were as follows: 6 nM human NAMPT, 2.5 mM ATP, […] in 50 mM HEPES, pH 7.2, 1 mM DTT, 1 mM CHAPS 50 mM NaCl, 100 mM MgCl2. Following an incubation of 60 min at ambient temperature, 10 μL of 20% acetophenone in DMSO was added, followed by 10 μL of 2 M KOH and 40 μL of formic acid. The plates were read for fluorescence (Excitation/Emission=355 nm/460 nm) using an EnVision plate reader after 40 mins of incubation at ambient temperature. The potency measurements for compounds, are quantified and represented as AC1.4 (the concentration of compounds that generates 40% higher activity over basal) and EC50 (concentration of the compound that gives half-maximal activation).

human NAMPT, sequence (P43490 whole entry): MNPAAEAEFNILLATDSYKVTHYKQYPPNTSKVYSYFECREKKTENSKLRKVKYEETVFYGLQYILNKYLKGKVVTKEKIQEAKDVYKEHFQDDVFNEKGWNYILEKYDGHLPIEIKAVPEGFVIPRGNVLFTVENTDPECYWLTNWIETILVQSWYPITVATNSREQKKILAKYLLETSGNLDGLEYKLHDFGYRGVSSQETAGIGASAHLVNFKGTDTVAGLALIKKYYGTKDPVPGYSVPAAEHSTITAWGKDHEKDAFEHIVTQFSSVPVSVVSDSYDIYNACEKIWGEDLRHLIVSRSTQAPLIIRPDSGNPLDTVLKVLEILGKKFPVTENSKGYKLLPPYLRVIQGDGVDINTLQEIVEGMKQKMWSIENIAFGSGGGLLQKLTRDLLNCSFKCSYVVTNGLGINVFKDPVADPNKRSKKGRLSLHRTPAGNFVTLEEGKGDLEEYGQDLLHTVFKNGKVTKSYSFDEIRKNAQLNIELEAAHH

Row | Compound | AC1.4 Human [µM] | EC50 [µM]
1 | Cc1nc(C(=O)N2CCCC2Cc2ccccc2)nc(NCCc2cn[nH]c2)c1C (centres unmarked) [Compound 71, (4-((2-(1H-pyrazol-4-yl)ethyl)amino)-5,6-dimethylpyrimidin-2-yl)(2-benzylpyrrolidin-1-yl)methanone] | 0.5835 | 6.07
2 | Cc1nc(C(=O)N2CCOC[C@@H]2Cc2ccccc2)nc(NCCc2cn[nH]c2)c1C [Compound 72, (S)-(4-((2-(1H-pyrazol-4-yl)ethyl)amino)-5,6-dimethylpyrimidin-2-yl)(3-benzylmorpholino)methanone] | 0.625 | 3.53
3 | Cc1nc(C(=O)N[C@@H](C)c2cccc(F)n2)nc(NCCc2cn[nH]c2)c1C [Compound 73, (S)-4-((2-(1H-pyrazol-4-yl)ethyl)amino)-N-(1-(6-fluoropyridin-2-yl)ethyl)-5,6-dimethylpyrimidine-2-carboxamide] | 0.6455 | 3.24
4 | Cc1nc(C(=O)NCC2(c3cccc(F)c3)COC2)nc(NCCc2cn[nH]c2)c1C [Compound 74, 4-((2-(1H-pyrazol-4-yl)ethyl)amino)-N-((3-(3-fluorophenyl)oxetan-3-yl)methyl)-5,6-dimethylpyrimidine-2-carboxamide] | 0.715 | 8.01
5 | Cc1nc(C(=O)N[C@H](C)c2ccco2)nc(NCCc2cn[nH]c2)c1C [Compound 75, (R)-4-((2-(1H-pyrazol-4-yl)ethyl)amino)-N-(1-(furan-2-yl)ethyl)-5,6-dimethylpyrimidine-2-carboxamide] | 0.7725 | 2.62
6 | Cc1nc(C(=O)N2CC(c3ccccc3)C2)nc(NCCc2cn[nH]c2)c1C [Compound 76, (4-((2-(1H-pyrazol-4-yl)ethyl)amino)-5,6-dimethylpyrimidin-2-yl)(3-phenylazetidin-1-yl)methanone] | 0.773 | 6.83
7 | Cc1nc(C(=O)N2CC(O)(c3ccccc3F)C2)nc(NCCc2cn[nH]c2)c1C [Compound 77, (4-((2-(1H-pyrazol-4-yl)ethyl)amino)-5,6-dimethylpyrimidin-2-yl)(3-(2-fluorophenyl)-3-hydroxyazetidin-1-yl)methanone] | 0.8835 | 13.7
8 | Cc1cccc([C@@H](C)NC(=O)c2nc(C)c(C)c(NCCc3cn[nH]c3)n2)n1 [Compound 78, (R)-4-((2-(1H-pyrazol-4-yl)ethyl)amino)-5,6-dimethyl-N-(1-(6-methylpyridin-2-yl)ethyl)pyrimidine-2-carboxamide] | 0.81 | 5.62
9 | Cc1nc(C(=O)NC2CC(F)(F)c3ccccc32)nc(NCCc2cn[nH]c2)c1C (centres unmarked) [Compound 79, 4-((2-(1H-pyrazol-4-yl)ethyl)amino)-N-(3,3-difluoro-2,3-dihydro-1H-inden-1-yl)-5,6-dimethylpyrimidine-2-carboxmaide] | 0.8395 | 4.62
10 | Cc1nc(C(=O)N2CCOCC2c2ccccc2Cl)nc(NCCc2cn[nH]c2)c1C (centres unmarked) [Compound 80, (4-((2-(1H-pyrazol-4-yl)ethyl)amino)-5,6-dimethylpyrimidin-2-yl)(3-(2-chlorophenyl)morpholino)methanone] | 0.877 | 10.4
11 | Cc1nc(C(=O)N2CC(OC(F)(F)F)C2)nc(NCCc2cn[nH]c2)c1C [Compound 81, (4-((2-(1H-pyrazol-4-yl)ethyl)amino)-5,6-dimethylpyrimidin-2-yl)(3-(trifluoromethoxy)azetidin-1-yl)methanone] | 0.891 | 5.98
12 | COC[C@@H](NC(=O)c1nc(C)c(C)c(NCCc2cn[nH]c2)n1)c1cccc(F)c1 [Compound 82, (S)-4-((2-(1H-pyrazol-4-yl)ethyl)amino)-N-(1-(3-fluorophenyl)-2-methoxyethyl)-5,6-dimethylpyrimidine-2-carboxamide] | 0.966 | 3.99
13 | Cc1nc(C(=O)NC(C)(C)c2ccc(F)cc2)nc(NCCc2cn[nH]c2)c1C [Compound 83, 4-((2-(1H-pyrazol-4-yl)ethyl)amino)-N-(2-(4-fluorophenyl)propan-2-yl)-5,6-dimethylpyrimidine-2-carboxamide] | 0.9695 | 14.5
14 | Cc1nc(C(=O)N2CC(CO)(c3ccccc3)C2)nc(NCCc2cn[nH]c2)c1C [Compound 84, (4-((2-(1H-pyrazol-4-yl)ethyl)amino)-5,6-dimethylpyrimidin-2-yl)(3-(hydroxymethyl)-3-phenylazetidin-1-yl)methanone] | 31.857 | 40.2
15 | Cc1nc(C(=O)NC2(Cc3ccc(F)cc3Cl)CCOCC2)nc(NCCc2cn[nH]c2)c1C [Compound 85, 4-((2-(1H-pyrazol-4-yl)ethyl)amino)-N-(4-(2-chloro-4-fluorobenzyl)tetrahydro-2H-pyran-4-yl)-5,6-dimethylpyrimidine-2-carboxamide] | 1.072 | 8.35
16 | Cc1nc(C(=O)N2CCC[C@@H]2c2ccc(F)cc2)nc(NCCc2cn[nH]c2)c1C [Compound 86, (R)-(4-((2-(1H-pyrazol-4-yl)ethyl)amino)-5,6-dimethylpyrimidin-2-yl)(2-(4-flurophenyl)pyrrolidin-1-yl)methanone] | 1.1115 | 8.04
17 | Cc1nc(C(=O)N[C@@H](C)c2ccncc2)nc(NCCc2cn[nH]c2)c1C [Compound 87, (S)-4-((2-(1H-pyrazol-4-yl)ethyl)amino)-5,6-dimethyl-N-(1-(pyridin-4-yl)ethyl)pyrimidine-2-carboxamide] | 1.1375 | 13.3
18 | COc1cccc(CNC(=O)c2nc(C)c(C)c(NCCc3cn[nH]c3)n2)n1 [Compound 88, 4-((2-(1H-pyrazol-4-yl)ethyl)amino)-N-((6-methoxypyridin-2-yl)methyl)-5,6-dimethylpyrimidine-2-carboxamide] | 1.1435 | 7.21
19 | Cc1nc(C(=O)N2CC(C)(c3ccccc3)C2)nc(NCCc2cn[nH]c2)c1C [Compound 89, (4-((2-(1H-pyrazol-4-yl)ethyl)amino)-5,6-dimethylpyrimidin-2-yl)(3-methyl-3-phenylazetidin-1-yl)methanone] | 4.9195 | 37.3
20 | Cc1nc(C(=O)NC(C)c2ccon2)nc(NCCc2cn[nH]c2)c1C (centres unmarked) [Compound 90, 4-((2-(1H-pyrazol-4-yl)ethyl)amino)-N-(1-(isoxazol-3-yl)ethyl)-5,6-dimethylpyrimidine-2-carboxamide] | 1.17 | 9.24
21 | Cc1nc(C(=O)N2CC(F)(F)C2)nc(NCCc2cn[nH]c2)c1C [Compound 91, (4-((2-(1H-pyrazol-4-yl)ethyl)amino)-5,6-dimethylpyrimidin-2-yl)(3,3-difluoroazetidin-1-yl)methanone] | 0.9345 | 7.76
22 | COCC(c1ccc(F)cc1)N(C)C(=O)c1nc(C)c(C)c(NCCc2cn[nH]c2)n1 (centres unmarked) [Compound 92, 4-((2-(1H-pyrazol-4-yl)ethyl)amino)-N-(1-(4-fluorophenyl)-2-methoxyethyl)-N,5,6-trimethylpyrimidine-2-carboxamide] | 1.1995 | 5.68
23 | Cc1nc(C(=O)NCc2ccccn2)nc(NCCc2cn[nH]c2)c1C [Compound 93, 4-((2-(1H-pyrazol-4-yl)ethyl)amino)-5,6-dimethyl-N-(pyridin-2-ylmethyl)pyrimidine-2-carboxamide] | 1.244 | 14.9
24 | Cc1nc(C(=O)NCC2(c3ccccc3)COC2)nc(NCCc2cn[nH]c2)c1C [Compound 94, 4-((2-(1H-pyrazol-4-yl)ethyl)amino)-5,6-dimethyl-N-((3-phenyloxetan-3-yl)methyl)pyrimidine-2-carboxamide] | 1.271 | 8.13
25 | Cc1nc(C(=O)N[C@H](C)c2ccncc2)nc(NCCc2cn[nH]c2)c1C [Compound 95, (R)-4-((2-(1H-pyrazol-4-yl)ethyl)amino)-5,6-dimethyl-N-(1-(pyridin-4-yl)ethyl)pyrimidine-2-carboxamide] | 1.2975 | 11
26 | Cc1nc(C(=O)N2CCC(C#N)(c3ccccc3)CC2)nc(NCCc2cn[nH]c2)c1C [Compound 96, 1-(4-((2-(1H-pyrazol-4-yl)ethyl)amino)-5,6-dimethylpyrimidine-2-carbonyl)-4-phenylpiperidine-4-carbonitrile] | 1.3075 | 8.51
27 | Cc1nc(C(=O)N2CC(O)(C3CC3)C2)nc(NCCc2cn[nH]c2)c1C [Compound 97, (4-((2-(1H-pyrazol-4 yl)ethyl)amino)-5,6-dimethylpyrimidin-2-yl)(3-cyclopropyl-3-hydroxyazetidin-1-yl)methanone] | 6.337 | 22.3
28 | Cc1nc(C(=O)NC(c2ccccc2F)c2nccn2C)nc(NCCc2cn[nH]c2)c1C (centres unmarked) [Compound 98, 4-((2-(1H-pyrazol-4-yl)ethyl)amino)-N-((2-fluorophenyl)(1-methyl-1H-imidazol-2-yl)methyl)-5,6-dimethylpyrimidine-2-carboxamide] | 1.3275 | 5.15
